Type in all cases: cell-based
Assay [1] has as its target T1, 11β-hydroxysteroid dehydrogenase type 1 (Homo sapiens, UniProt P28845).
T1 construct: endogenous in cells; host or cells: normal human epidermal keratinocytes (NHEK)
As to the kind of experiment: Cortisol concentration in cell culture solution of UVB-irradiated, cortisone-treated keratinocytes (ELISA). The conditions noted are these: coumestrol 1 μM, 5 μM. The procedure:
(§1) Human keratinocytes (normal human epidermal keratinocytes, NHEK) were cultured in a 6-well plate incubator. Specifically, the normal human epidermal keratinocytes were cultured by replacing it with phosphate-buffered saline (PBS) after 24 hours to irradiate UVB (25 mJ/cm^2) and then, adding cortisone (10 μM) to NHEK culture media having no hydrocortisone. Subsequently, the cell culture solution was collected to measure a cortisol concentration in an ELISA method, and the results are shown in FIG. 1.
(In general: ELISA stands for enzyme-linked immunosorbent assay.)

The test system of another assay is keratin 1 (KRT1). As to the kind of experiment: Western blotting of keratinocyte differentiation marker KRT1 in UVB-irradiated keratinocytes. The conditions noted are these: human keratinocytes, coumestrol 1 μM, 5 μM, 10 μM, FIG. 2. The procedure: as §1
(§2) In addition, after separating proteins from the human keratinocytes using a RIPA lysis buffer, protein expression of keratinocyte differentiation markers (KRT1, Filaggrin) was confirmed through western blotting, and the results are shown in FIGS. 2 and 3. Referring to FIGS. 2 and 3, in the wells containing the coumestrol (1 μM, 5 μM, 10 μM), gene expression of the keratinocyte differentiation markers (KRT1, Filaggrin) inhibited by the ultraviolet (UVB) rays was increased in the keratinocytes. In other words, the gene expression of the keratinocyte differentiation markers inhibited by the ultraviolet (UVB) rays in the keratinocytes was restored by the coumestrol, and accordingly, the coumestrol inhibited activity of the cortisone reductase and reduced the cortisol concentration, eventually restoring the gene expression of the keratinocyte differentiation markers.
For orientation: In western blotting, separated proteins are transferred to a membrane and probed.

The next assay concerns Filaggrin. In words: Western blotting of keratinocyte differentiation marker filaggrin in UVB-irradiated keratinocytes. The conditions noted are these: human keratinocytes, coumestrol 1 μM, 5 μM, 10 μM, FIG. 3. As for the experimental part:
as §1, §2

T1 sequence (P28845 whole entry): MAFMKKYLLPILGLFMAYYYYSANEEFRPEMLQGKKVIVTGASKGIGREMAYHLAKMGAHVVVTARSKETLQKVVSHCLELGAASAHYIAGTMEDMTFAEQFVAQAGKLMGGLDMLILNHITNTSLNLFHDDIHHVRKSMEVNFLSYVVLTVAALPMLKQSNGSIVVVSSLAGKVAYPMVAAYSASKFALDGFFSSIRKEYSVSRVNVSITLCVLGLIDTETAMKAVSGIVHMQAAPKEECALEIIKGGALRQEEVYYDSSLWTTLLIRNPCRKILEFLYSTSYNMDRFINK

For the compound `O=c1oc2cc(O)ccc2c2oc3cc(O)ccc3c12` [coumestrol], in assay [1] (NHEK, UVB 25 mJ/cm^2, cortisone 10 μM, compared with control before UV irradiation, FIG. 1), the “cortisol concentration in cell culture solution” value is reported as “not significantly increased”. In addition, in assay [1] (conclusion from cortisol ELISA in NHEK, 10 μM), the “activity of 11β-hydroxysteroid dehydrogenase type 1 (cortisone reductase)” value is recorded as “inhibit activity”. Moreover, the “expression of keratinocyte differentiation marker KRT1 inhibited by UVB” value with keratin 1 (KRT1) is given as “increased”. For the same compound, the “expression of keratinocyte differentiation marker Filaggrin inhibited by UVB” value in the assay on Filaggrin is reported as “increased”.
